Values quoted from earlier work in patent US20240286999A1, “AZABICYCLO[3.1.0]HEXANE COMPOUND” (OTSUKA PHARMACEUTICAL CO., LTD., priority 2021, published 2024).

What was measured:
[1] = tested on: norepinephrine reuptake (NE); conditions: ranking among NE, DA and 5-HT reuptake
dopamine reuptake (DA) = conditions: relative to NE reuptake
[2] = tested on: serotonin reuptake (5-HT); conditions: relative to NE reuptake

## c1ccc2cc([C@]34CNC[C@H]3C4)ccc2c1 [(1R,5S)-1-(naphthalen-2-yl)-3-azabicyclo[3.1.0]hexane]
[1]
  effectiveness against norepinephrine reuptake (NE): most effective
Dopamine reuptake (DA)
  effectiveness against dopamine reuptake (DA) relative to norepinephrine reuptake: one-sixth as effective
[2]
  effectiveness against serotonin reuptake (5-HT) relative to norepinephrine reuptake: one-fourteenth as effective
